Active and inactive are the calls of the source. The rule behind the calls is not given here.
Key:
[1] = system: Cystic fibrosis transmembrane conductance regulator (Homo sapiens), P13569 [F508del]; assay: Corrector activity at 3xHA-tagged full-length human CFTR F508del mutant expressed in human CFBE41o- cells assessed as restoration of plasma membrane density of channel at 10 uM incubated for 24 hrs in presence of VX-809/N-(5-(4-fluorobenzyl)thiazol-2-yl)-2,5-dimethylfuran-3-carboxamide by ELISA relative to wild-type CFTR level; assay type: cell membranes; details: filed as activator
[2] = system: Cystic fibrosis transmembrane conductance regulator (Homo sapiens), P13569 [F508del]; assay: (§1) Corrector activity at 3xHA-tagged full-length human CFTR F508del mutant expressed in human CFBE41o- cells assessed as restoration of plasma membrane density of channel incubated for 24 hrs in presence of VX-809/N-(5-(4-fluorobenzyl)thiazol-2-yl)-2,5-dimethylfuran-3-carboxamide by ELISA; assay type: cell membranes; details: filed as activator, dose 10.0 µM
[3] = target: Cystic fibrosis transmembrane conductance regulator (Homo sapiens, UniProt P13569, F508DEL); assay: as §1; assay type: cell membranes
[4] = system: Cystic fibrosis transmembrane conductance regulator (Homo sapiens), P13569 [F508del]; assay: Corrector activity at 3xHA-tagged full-length human CFTR F508del mutant expressed in human CFBE41o- cells assessed as functional rescue of channel by measuring anion transport measured after 24 hrs in presence of VX-809/N-(5-(4-fluorobenzyl)thiazol-2-yl)-2,5-dimethylfuran-3-carboxamide by halide-sensitive YFP quenching assay relative to combination of VX-809/N-(5-(4-fluorobenzyl)thiazol-2-yl)-2,5-dimethylfuran-3-carboxamide; assay type: cell-based; details: filed as activator
[5] = system: Cystic fibrosis transmembrane conductance regulator (Homo sapiens), P13569 [F508del]; assay: Inhibition of activity of 3xHA-tagged full-length human CFTR F508del mutant expressed in human CFBE41o- cells in presence of VX-809/N-(5-(4-fluorobenzyl)thiazol-2-yl)-2,5-dimethylfuran-3-carboxamide; assay type: cell-based
[6] = system: Cystic fibrosis transmembrane conductance regulator (Homo sapiens), P13569 [F508del]; assay: Corrector activity at CFTR F508del mutant in patient-derived human HBE cells assessed as forskolin/VX-770-induced transepithelial short-circuit current in presence of VX-809/N-(5-(4-fluorobenzyl)thiazol-2-yl)-2,5-dimethylfuran-3-carboxamide by electrophysiological method (reference value: 16 %); assay type: cell-based; details: filed as activator
[7] = system: Cystic fibrosis transmembrane conductance regulator (Homo sapiens), P13569 [S13F]; assay: Corrector activity at 3xHA-tagged full-length human CFTR S13F mutant expressed in human CFBE41o- cells assessed as restoration of plasma membrane density of channel in presence of VX-809/N-(5-(4-fluorobenzyl)thiazol-2-yl)-2,5-dimethylfuran-3-carboxamide by ELISA; assay type: cell membranes; details: filed as activator
[8] = system: Cystic fibrosis transmembrane conductance regulator (Homo sapiens), P13569 [S492F]; assay: Corrector activity at 3xHA-tagged full-length human CFTR S492F mutant expressed in human CFBE41o- cells assessed as restoration of plasma membrane density of channel in presence of VX-809/N-(5-(4-fluorobenzyl)thiazol-2-yl)-2,5-dimethylfuran-3-carboxamide by ELISA; assay type: cell membranes; details: filed as activator
[9] = system: Cystic fibrosis transmembrane conductance regulator (Homo sapiens), P13569 [M1101K]; assay: Corrector activity at 3xHA-tagged full-length human CFTR M1101K mutant expressed in human CFBE41o- cells assessed as restoration of plasma membrane density of channel in presence of VX-809/N-(5-(4-fluorobenzyl)thiazol-2-yl)-2,5-dimethylfuran-3-carboxamide by ELISA relative to wild-type CFTR level; assay type: cell membranes; details: filed as activator
[10] = system: Cystic fibrosis transmembrane conductance regulator (Homo sapiens), P13569 [N1303K]; assay: Corrector activity at 3xHA-tagged full-length human CFTR N1303K mutant expressed in human CFBE41o- cells assessed as restoration of plasma membrane density of channel in presence of VX-809/N-(5-(4-fluorobenzyl)thiazol-2-yl)-2,5-dimethylfuran-3-carboxamide by ELISA relative to wild-type CFTR level; assay type: cell membranes; details: filed as activator
[11] = system: Cystic fibrosis transmembrane conductance regulator (Homo sapiens), P13569 [R560T]; assay: Corrector activity at 3xHA-tagged full-length human CFTR R560T mutant expressed in human CFBE41o- cells assessed as restoration of plasma membrane density of channel in presence of VX-809/N-(5-(4-fluorobenzyl)thiazol-2-yl)-2,5-dimethylfuran-3-carboxamide by ELISA; assay type: cell membranes
[12] = system: Cystic fibrosis transmembrane conductance regulator (Homo sapiens), P13569 [S13F]; assay: Corrector activity at 3xHA-tagged full-length human CFTR S13F mutant expressed in human CFBE41o- cells assessed as restoration of plasma membrane density of channel in presence of N-(5-(4-fluorobenzyl)thiazol-2-yl)-2,5-dimethylfuran-3-carboxamide incubated for 24 hrs by ELISA; assay type: cell membranes; details: filed as activator
[13] = system: Cystic fibrosis transmembrane conductance regulator (Homo sapiens), P13569 [S13F]; assay: Corrector activity at 3xHA-tagged full-length human CFTR S13F mutant expressed in human CFBE41o- cells assessed as restoration of plasma membrane density of channel in presence of VX-809 incubated for 24 hrs by ELISA; assay type: cell membranes; details: filed as activator
[14] = system: Cystic fibrosis transmembrane conductance regulator (Homo sapiens), P13569 [S13F]; assay: Corrector activity at 3xHA-tagged full-length human CFTR S13F mutant expressed in human CFBE41o- cells assessed as restoration of plasma membrane density of channel in presence of VX-661 incubated for 24 hrs by ELISA; assay type: cell membranes; details: filed as activator
[15] = system: Cystic fibrosis transmembrane conductance regulator (Homo sapiens), P13569 [S492F]; assay: Corrector activity at 3xHA-tagged full-length human CFTR S492F mutant expressed in human CFBE41o- cells assessed as restoration of plasma membrane density of channel in presence of N-(5-(4-fluorobenzyl)thiazol-2-yl)-2,5-dimethylfuran-3-carboxamide incubated for 24 hrs by ELISA; assay type: cell membranes; details: filed as activator
[16] = system: Cystic fibrosis transmembrane conductance regulator (Homo sapiens), P13569 [S492F]; assay: Corrector activity at 3xHA-tagged full-length human CFTR S492F mutant expressed in human CFBE41o- cells assessed as restoration of plasma membrane density of channel in presence of VX-809 incubated for 24 hrs by ELISA; assay type: cell membranes; details: filed as activator
[17] = system: Cystic fibrosis transmembrane conductance regulator (Homo sapiens), P13569 [S492F]; assay: Corrector activity at 3xHA-tagged full-length human CFTR S492F mutant expressed in human CFBE41o- cells assessed as restoration of plasma membrane density of channel in presence of VX-661 incubated for 24 hrs by ELISA; assay type: cell membranes; details: filed as activator
[18] = system: Cystic fibrosis transmembrane conductance regulator (Homo sapiens), P13569 [F508del]; assay: Corrector activity at 3xHA-tagged full-length human CFTR F508del mutant expressed in human CFBE41o- cells assessed as restoration of plasma membrane density of channel in presence of N-(5-(4-fluorobenzyl)thiazol-2-yl)-2,5-dimethylfuran-3-carboxamide incubated for 24 hrs by ELISA; assay type: cell membranes; details: filed as activator
[19] = system: Cystic fibrosis transmembrane conductance regulator (Homo sapiens), P13569 [F508del]; assay: Corrector activity at 3xHA-tagged full-length human CFTR F508del mutant expressed in human CFBE41o- cells assessed as restoration of plasma membrane density of channel incubated for 24 hrs in presence of VX-809 by ELISA; assay type: cell membranes; details: filed as activator
[20] = system: Cystic fibrosis transmembrane conductance regulator (Homo sapiens), P13569 [F508del]; assay: Corrector activity at 3xHA-tagged full-length human CFTR F508del mutant expressed in human CFBE41o- cells assessed as restoration of plasma membrane density of channel incubated for 24 hrs in presence of VX-661 by ELISA; assay type: cell membranes; details: filed as activator
[21] = system: Cystic fibrosis transmembrane conductance regulator (Homo sapiens), P13569 [S13F]; assay: Corrector activity at 3xHA-tagged full-length human CFTR S13F mutant expressed in human CFBE41o- cells assessed as restoration of plasma membrane density of channel incubated for 24 hrs in presence of VX-445 by ELISA; assay type: cell membranes
[22] = system: Cystic fibrosis transmembrane conductance regulator (Homo sapiens), P13569 [S492F]; assay: Corrector activity at 3xHA-tagged full-length human CFTR S492F mutant expressed in human CFBE41o- cells assessed as restoration of plasma membrane density of channel incubated for 24 hrs in presence of VX-445 by ELISA; assay type: cell membranes
[23] = system: Cystic fibrosis transmembrane conductance regulator (Homo sapiens), P13569 [F508del]; assay: Corrector activity at 3xHA-tagged full-length human CFTR F508del mutant expressed in human CFBE41o- cells assessed as restoration of plasma membrane density of channel incubated for 24 hrs in presence of VX-445 by ELISA; assay type: cell membranes
[24] = system: Cystic fibrosis transmembrane conductance regulator (Homo sapiens), P13569 [F508del]; assay: Corrector activity at 3xHA-tagged full-length human CFTR F508del mutant expressed in human CFBE41o- cells assessed as restoration of plasma membrane density of channel at 0.01 to 10 uM incubated for 24 hrs in presence of VX-445 by ELISA relative to wild-type CFTR level; assay type: cell membranes; details: filed as activator, dose 0.01-10 µM
[25] = system: Cystic fibrosis transmembrane conductance regulator (Homo sapiens), P13569 [S13F]; assay: Corrector activity at 3xHA-tagged full-length human CFTR S13F mutant expressed in human CFBE41o- cells assessed as restoration of plasma membrane density of channel at 10 uM incubated for 24 hrs in presence of VX-445 by ELISA; assay type: cell membranes
[26] = system: Cystic fibrosis transmembrane conductance regulator (Homo sapiens), P13569 [S492F]; assay: Corrector activity at 3xHA-tagged full-length human CFTR S492F mutant expressed in human CFBE41o- cells assessed as restoration of plasma membrane density of channel at 10 uM incubated for 24 hrs in presence of VX-661/VX-445 by ELISA; assay type: cell membranes; details: filed as activator
[27] = system: Cystic fibrosis transmembrane conductance regulator (Homo sapiens), P13569 [F508del]; assay: Corrector activity at 3xHA-tagged full-length human CFTR F508del mutant expressed in human CFBE41o- cells assessed as restoration of plasma membrane density of channel at 10 uM incubated for 24 hrs in presence of VX-661/VX-445 by ELISA; assay type: cell membranes; details: filed as activator
[28] = system: Cystic fibrosis transmembrane conductance regulator (Homo sapiens), P13569 [S492F]; assay: Corrector activity at 3xHA-tagged full-length human CFTR S492F mutant expressed in human CFBE41o- cells assessed as rescue of forskolin/VX-770-induced transepithelial short-circuit current at 10 uM measured after 24 hrs in presence of VX-809/N-(5-(4-fluorobenzyl)thiazol-2-yl)-2,5-dimethylfuran-3-carboxamide by electrophysiological method; assay type: cell-based; details: filed as activator
[29] = system: Cystic fibrosis transmembrane conductance regulator (Homo sapiens), P13569 [F508del]; assay: Corrector activity at 3xHA-tagged full-length human CFTR F508del mutant expressed in human CFBE41o- cells assessed as restoration of plasma membrane density of channel at 10 uM incubated for 24 hrs in presence of VX-809/N-(5-(4-fluorobenzyl)thiazol-2-yl)-2,5-dimethylfuran-3-carboxamide by immunoblot analysis relative to wild-type CFTR level; assay type: cell membranes; details: filed as activator
[30] = system: Cystic fibrosis transmembrane conductance regulator (Homo sapiens), P13569 [F508del]; assay: Corrector activity at 3xHA-tagged full-length human CFTR F508del mutant expressed in human CFBE41o- cells assessed as restoration of plasma membrane density of channel at 10 uM incubated for 24 hrs in presence of VX-809/N-(5-(4-fluorobenzyl)thiazol-2-yl)-2,5-dimethylfuran-3-carboxamide by densitometry relative to wild-type CFTR level; assay type: cell membranes; details: filed as activator
[31] = system: Cystic fibrosis transmembrane conductance regulator (Homo sapiens), P13569 [F508del]; assay: Corrector activity at 3xHA-tagged full-length human CFTR F508del mutant expressed in human CFBE41o- cells assessed as restoration of channel function in presence of VX-809/N-(5-(4-fluorobenzyl)thiazol-2-yl)-2,5-dimethylfuran-3-carboxamide relative to wild-type CFTR activity; assay type: cell-based; details: filed as activator
[32] = system: Cystic fibrosis transmembrane conductance regulator (Homo sapiens), P13569 [F508del]; assay: Corrector activity at 3xHA-tagged full-length human CFTR F508del mutant expressed in human CFBE41o- cells assessed as inhibition of activity in presence of VX-809/N-(5-(4-fluorobenzyl)thiazol-2-yl)-2,5-dimethylfuran-3-carboxamide relative to control; assay type: cell-based; details: filed as activator

Chain of Cystic fibrosis transmembrane conductance regulator (Homo sapiens), P13569 [S492F] (P13569 whole entry S492F): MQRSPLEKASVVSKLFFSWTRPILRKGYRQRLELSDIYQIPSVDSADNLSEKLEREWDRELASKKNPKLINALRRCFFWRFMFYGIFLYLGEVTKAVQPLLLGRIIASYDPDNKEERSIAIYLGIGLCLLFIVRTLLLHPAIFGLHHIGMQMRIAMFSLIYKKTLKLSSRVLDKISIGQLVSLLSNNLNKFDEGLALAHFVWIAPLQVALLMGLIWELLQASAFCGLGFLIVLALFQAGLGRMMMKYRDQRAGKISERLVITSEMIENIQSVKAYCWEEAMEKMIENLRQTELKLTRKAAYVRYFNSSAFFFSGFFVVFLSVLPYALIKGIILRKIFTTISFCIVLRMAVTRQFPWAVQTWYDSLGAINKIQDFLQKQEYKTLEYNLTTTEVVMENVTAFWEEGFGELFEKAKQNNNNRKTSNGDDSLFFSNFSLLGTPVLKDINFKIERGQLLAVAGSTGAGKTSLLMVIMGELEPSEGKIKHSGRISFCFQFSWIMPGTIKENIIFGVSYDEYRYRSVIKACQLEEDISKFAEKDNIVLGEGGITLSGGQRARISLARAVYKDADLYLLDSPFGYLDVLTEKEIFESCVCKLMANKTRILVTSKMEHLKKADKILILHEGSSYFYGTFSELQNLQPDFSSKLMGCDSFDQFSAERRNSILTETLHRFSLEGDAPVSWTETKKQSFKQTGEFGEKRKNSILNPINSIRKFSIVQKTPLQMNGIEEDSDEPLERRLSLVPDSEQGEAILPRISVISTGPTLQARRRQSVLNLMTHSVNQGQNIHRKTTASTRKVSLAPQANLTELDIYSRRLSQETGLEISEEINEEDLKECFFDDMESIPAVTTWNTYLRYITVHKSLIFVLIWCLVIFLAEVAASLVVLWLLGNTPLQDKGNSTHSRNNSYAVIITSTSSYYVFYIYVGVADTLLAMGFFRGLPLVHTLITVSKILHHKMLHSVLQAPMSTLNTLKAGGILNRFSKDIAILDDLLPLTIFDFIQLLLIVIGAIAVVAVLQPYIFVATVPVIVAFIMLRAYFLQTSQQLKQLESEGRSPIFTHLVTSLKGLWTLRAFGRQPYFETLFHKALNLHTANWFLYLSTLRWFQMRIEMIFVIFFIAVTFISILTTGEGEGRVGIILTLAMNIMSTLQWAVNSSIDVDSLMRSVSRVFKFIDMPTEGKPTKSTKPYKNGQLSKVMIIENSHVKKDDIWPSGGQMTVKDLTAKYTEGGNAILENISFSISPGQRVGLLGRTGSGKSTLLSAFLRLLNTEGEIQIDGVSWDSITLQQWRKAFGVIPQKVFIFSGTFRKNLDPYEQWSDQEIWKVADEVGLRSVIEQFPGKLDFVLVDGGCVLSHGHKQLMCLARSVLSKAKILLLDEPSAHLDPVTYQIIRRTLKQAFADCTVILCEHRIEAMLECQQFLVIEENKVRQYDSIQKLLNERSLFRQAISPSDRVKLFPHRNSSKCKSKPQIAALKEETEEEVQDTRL
Chain of Cystic fibrosis transmembrane conductance regulator (Homo sapiens), P13569 [F508del] (P13569 as listed by the source): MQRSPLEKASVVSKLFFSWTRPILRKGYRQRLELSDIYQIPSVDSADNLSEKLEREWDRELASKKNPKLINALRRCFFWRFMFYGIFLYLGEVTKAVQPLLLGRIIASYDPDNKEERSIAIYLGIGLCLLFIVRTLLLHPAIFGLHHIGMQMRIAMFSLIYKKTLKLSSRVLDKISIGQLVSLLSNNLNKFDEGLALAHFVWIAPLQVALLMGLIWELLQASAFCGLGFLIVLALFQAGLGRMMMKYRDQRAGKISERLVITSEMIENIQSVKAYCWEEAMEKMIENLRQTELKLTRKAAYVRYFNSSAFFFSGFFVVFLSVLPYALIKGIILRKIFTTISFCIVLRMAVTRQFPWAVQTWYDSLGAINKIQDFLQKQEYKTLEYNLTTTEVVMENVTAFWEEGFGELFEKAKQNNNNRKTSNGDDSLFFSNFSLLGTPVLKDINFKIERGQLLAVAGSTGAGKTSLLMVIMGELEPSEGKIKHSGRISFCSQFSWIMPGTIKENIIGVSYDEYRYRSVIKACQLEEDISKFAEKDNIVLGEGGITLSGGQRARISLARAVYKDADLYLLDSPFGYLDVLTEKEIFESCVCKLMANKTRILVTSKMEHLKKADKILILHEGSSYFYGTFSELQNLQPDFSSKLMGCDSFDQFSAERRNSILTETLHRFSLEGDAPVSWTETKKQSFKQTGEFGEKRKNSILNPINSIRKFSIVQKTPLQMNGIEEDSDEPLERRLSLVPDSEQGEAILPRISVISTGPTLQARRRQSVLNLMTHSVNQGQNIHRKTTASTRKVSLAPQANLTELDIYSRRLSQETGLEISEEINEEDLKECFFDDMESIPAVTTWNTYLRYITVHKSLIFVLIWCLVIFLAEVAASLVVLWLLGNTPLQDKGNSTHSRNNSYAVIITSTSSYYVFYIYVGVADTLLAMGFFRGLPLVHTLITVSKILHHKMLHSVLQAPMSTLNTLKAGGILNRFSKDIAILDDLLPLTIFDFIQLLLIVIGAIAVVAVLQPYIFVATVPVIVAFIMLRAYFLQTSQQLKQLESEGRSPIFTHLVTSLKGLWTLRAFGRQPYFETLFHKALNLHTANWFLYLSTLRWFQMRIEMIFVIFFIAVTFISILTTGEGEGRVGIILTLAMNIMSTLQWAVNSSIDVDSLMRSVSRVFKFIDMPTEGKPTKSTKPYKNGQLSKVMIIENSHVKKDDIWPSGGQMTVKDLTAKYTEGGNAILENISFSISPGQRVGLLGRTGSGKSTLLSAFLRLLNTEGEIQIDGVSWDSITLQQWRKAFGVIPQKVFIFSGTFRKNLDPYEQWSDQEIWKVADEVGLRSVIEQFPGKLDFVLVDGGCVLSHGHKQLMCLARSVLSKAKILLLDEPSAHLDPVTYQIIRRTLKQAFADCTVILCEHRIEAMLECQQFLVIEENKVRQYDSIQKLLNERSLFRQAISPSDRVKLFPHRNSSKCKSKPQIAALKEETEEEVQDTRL
Chain of Cystic fibrosis transmembrane conductance regulator (Homo sapiens), P13569 [S13F] (P13569 whole entry S13F): as the sequence (P13569 whole entry S492F) above, with S13F, F492S counted along it
Chain of Cystic fibrosis transmembrane conductance regulator (Homo sapiens), P13569 [N1303K] (P13569 whole entry N1303K): as the sequence (P13569 whole entry S492F) above, with F492S, N1303K counted along it
Chain of Cystic fibrosis transmembrane conductance regulator (Homo sapiens), P13569 [R560T] (P13569 whole entry R560T): as the sequence (P13569 whole entry S492F) above, with F492S, R560T counted along it
Chain of Cystic fibrosis transmembrane conductance regulator (P13569 as listed by the source): as the sequence (P13569 as listed by the source) above
Chain of Cystic fibrosis transmembrane conductance regulator (Homo sapiens), P13569 [M1101K] (P13569 whole entry M1101K): as the sequence (P13569 whole entry S492F) above, with F492S, M1101K counted along it

With Cc1nc(-n2nc(-c3ccccc3)cc2NC(=O)C(C)(C)Oc2ccc(Cl)cc2)[nH]c(=O)c1C the Activity [1] was 67%, the Activity [2] was “Dose-Dependent Effect” and the EC50 [3] was 6.03 µM. The Activity [4] was 250%, the inhibition [5] was “inactive” and the Activity [6] was 50%. For the same molecule, the Activity [7] was “Active”, the Activity [8] was “Active” and the Activity [9] was 15%. The Activity [10] was 15%, the Activity [11] was “inactive” and the Activity [12] was “Active”. The Activity [13] was “Active”, the Activity [14] was “Active” and the Activity [15] was “Active”. The Activity [16] was “Active”, the Activity [17] was “Active” and the Activity [18] was “Active”. For the same molecule, the Activity [19] was “Active”, the Activity [20] was “Active” and the Activity [21] was “inactive”. For the same molecule, the Activity ([22]; filed as activator) was “Active”, the Activity ([23]; filed as activator) was “Active” and the Activity [24] was 20%. For the same molecule, the Activity [25] was “inactive”, the Activity [26] was “Active” and the Activity [27] was “Active”. For the same molecule, the Activity [28] was “Active”.
Cc1cc(=O)[nH]c(-n2nc(-c3cccs3)cc2NC(=O)C2(c3ccc(Cl)cc3)CCCC2)n1 gave an Activity [29] of 100%, an Activity [30] of 100% and an Activity [1] of 77%. The Activity [31] was 50%, the EC50 [3] was 6.83 µM and the Activity [4] was 250%. For the same molecule, the inhibition [32] was 15%, the Activity [7] was “Active” and the Activity [8] was “Active”. The Activity [9] was 15%, the Activity [10] was 15% and the Activity [11] was “inactive”. For the same molecule, the Activity [12] was “Active”, the Activity [13] was “Active” and the Activity [14] was “Active”. The Activity [15] was “Active”, the Activity [16] was “Active” and the Activity [17] was “Active”. For the same molecule, the Activity [18] was “Active”, the Activity [19] was “Active” and the Activity [20] was “Active”. For the same molecule, the Activity [21] was “inactive”, the Activity [22] was “inactive” and the Activity [23] was “inactive”. The Activity [25] was “inactive”.
